PubChem BioAssay (NCI)
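Test compounds were applied to cells in 96-well plates for 48 hours at 5 doses. Here, GI50 denotes the concentration required for 50% inhibition of growth. TGI denotes the concentration required for complete inhibition of growth.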

What was measured:
Assay in all cases: growth of human tumour cells (NCI), 48 h
[1] = tested on: 786-0 renal
[2] = tested on: A549 NSCLC
[3] = tested on: ACHN renal
[4] = tested on: CCRF-CEM leukemia
[5] = tested on: COLO 205 colon
[6] = tested on: DU-145 prostate
[7] = tested on: EKVX NSCLC
[8] = tested on: HCT-116 colon
[9] = tested on: HCT-15 colon
[10] = tested on: HS 578T breast
[11] = tested on: HT29 colon
[12] = tested on: IGROV1 ovarian
[13] = tested on: K-562 leukemia
[14] = tested on: KM12 colon
[15] = tested on: M14 melanoma
[16] = tested on: MCF7 breast
[17] = tested on: MDA-MB-435
[18] = tested on: MOLT-4 leukemia
[19] = tested on: NCI-H23 lung
[20] = tested on: NCI-H460 lung
[21] = tested on: NCI-H522 lung
[22] = tested on: NCI/ADR-RES ovarian
[23] = tested on: OVCAR-3 ovarian
[24] = tested on: OVCAR-5 ovarian
[25] = tested on: OVCAR-8 ovarian
[26] = tested on: PC-3 prostate
[27] = tested on: RPMI-8226 leukemia
[28] = tested on: SF-268 CNS
[29] = tested on: SF-295 CNS
[30] = tested on: SF-539 CNS
[31] = tested on: SK-MEL-2 melanoma
[32] = tested on: SK-MEL-28 melanoma
[33] = tested on: SN12C renal
[34] = tested on: SNB-19 CNS
[35] = tested on: SNB-75 CNS
[36] = tested on: SR leukemia
[37] = tested on: T-47D breast
[38] = tested on: UACC-257 melanoma
[39] = tested on: UACC-62 melanoma
[40] = tested on: UO-31 renal
[41] = tested on: BT-549 breast
[42] = tested on: CAKI-1 renal
[43] = tested on: HCC-2998 colon
[44] = tested on: HL-60(TB) leukemia
[45] = tested on: HOP-62 NSCLC
[46] = tested on: HOP-92 NSCLC
[47] = tested on: LOX IMVI melanoma
[48] = tested on: MDA-MB-231 breast
[49] = tested on: NCI-H226 lung
[50] = tested on: OVCAR-4 ovarian
[51] = tested on: RXF 393 renal
[52] = tested on: SK-MEL-5 melanoma
[53] = tested on: SW-620 colon
[54] = tested on: TK-10 renal
[55] = tested on: U251 CNS

## CCn1ncc2c1nc(-c1ccccc1)c[n+]2[O-]
[1]
  TGI: > 100 µM
[2]
  TGI: > 100 µM
[3]
  TGI: > 100 µM
[4]
  TGI: > 100 µM
[5]
  TGI: > 100 µM
[6]
  TGI: > 100 µM
[7]
  TGI: > 100 µM
[8]
  TGI: > 100 µM
[9]
  TGI: > 100 µM
[10]
  TGI: > 100 µM
[11]
  TGI: > 100 µM
[12]
  TGI: > 100 µM
[13]
  TGI: > 100 µM
[14]
  TGI: > 100 µM
[15]
  TGI: > 100 µM
[16]
  TGI: > 100 µM
[17]
  TGI: > 100 µM
[18]
  TGI: > 100 µM
[19]
  TGI: > 100 µM
[20]
  TGI: > 100 µM
[21]
  TGI: > 100 µM
[22]
  TGI: > 100 µM
[23]
  TGI: > 100 µM
[24]
  TGI: > 100 µM
[25]
  TGI: > 100 µM
[26]
  TGI: > 100 µM
[27]
  TGI: > 100 µM
[28]
  TGI: > 100 µM
[29]
  TGI: > 100 µM
[30]
  TGI: > 100 µM
[31]
  TGI: > 100 µM
[32]
  TGI: > 100 µM
[33]
  TGI: > 100 µM
[34]
  TGI: > 100 µM
[35]
  TGI: > 100 µM
[36]
  TGI: > 100 µM
[37]
  TGI: > 100 µM
[38]
  TGI: > 100 µM
[39]
  TGI: > 100 µM
[40]
  TGI: > 100 µM

## O=Cc1ccc(-c2ccc(-c3nc4ccccc4[nH]3)cc2)s1
[1]
  GI50: 19 µM
  TGI: 62.2 µM
[2]
  GI50: 40.4 µM
  TGI: > 100 µM
[3]
  GI50: 24.4 µM
  TGI: 67.1 µM
[41]
  GI50: 15.6 µM
  TGI: 52.4 µM
[42]
  GI50: 29.9 µM
  TGI: 57.2 µM
[4]
  GI50: 14 µM
  TGI: 38.9 µM
[6]
  GI50: 25.8 µM
  TGI: > 100 µM
[7]
  GI50: 24 µM
  TGI: 87 µM
[43]
  GI50: 29.3 µM
  TGI: 81.3 µM
[8]
  GI50: 18.4 µM
  TGI: 39 µM
[9]
  GI50: 19.1 µM
  TGI: 53.3 µM
[44]
  GI50: 47.1 µM
  TGI: > 100 µM
[45]
  GI50: 16.1 µM
  TGI: 41.1 µM
[46]
  GI50: 0.152 µM
  TGI: 28.1 µM
[11]
  GI50: 38.9 µM
  TGI: > 100 µM
[12]
  GI50: 34.8 µM
  TGI: > 100 µM
[13]
  GI50: 17.7 µM
  TGI: 53 µM
[14]
  GI50: 22.8 µM
  TGI: 69 µM
[47]
  GI50: 21.8 µM
  TGI: 64.6 µM
[15]
  GI50: 18.2 µM
  TGI: 43.2 µM
[48]
  GI50: 45.8 µM
  TGI: > 100 µM
[17]
  GI50: 26.4 µM
  TGI: 69.2 µM
[18]
  GI50: 32.4 µM
  TGI: > 100 µM
[49]
  GI50: 27.3 µM
  TGI: 82.3 µM
[19]
  GI50: 17.2 µM
  TGI: 35 µM
[20]
  GI50: 13.1 µM
  TGI: 29.7 µM
[21]
  GI50: 26.3 µM
  TGI: > 100 µM
[22]
  GI50: 21.1 µM
  TGI: 50.9 µM
[23]
  GI50: 20.9 µM
  TGI: 54.1 µM
[50]
  GI50: 33.8 µM
  TGI: 96.1 µM
[24]
  GI50: 37 µM
  TGI: > 100 µM
[25]
  GI50: 26.2 µM
  TGI: 87.5 µM
[26]
  GI50: 18.2 µM
  TGI: 40.3 µM
[51]
  GI50: 22.7 µM
  TGI: 57.8 µM
[28]
  GI50: 19.8 µM
  TGI: 48.3 µM
[29]
  GI50: 18.6 µM
  TGI: 55.5 µM
[31]
  GI50: 42 µM
  TGI: > 100 µM
[32]
  GI50: 47.7 µM
  TGI: > 100 µM
[52]
  GI50: 20.3 µM
  TGI: 41.9 µM
[33]
  GI50: 31.6 µM
  TGI: 92.2 µM
[36]
  GI50: 15.6 µM
  TGI: 98.7 µM
[53]
  GI50: 59.4 µM
  TGI: > 100 µM
[54]
  GI50: 23.5 µM
  TGI: 69.1 µM
[55]
  GI50: 26.7 µM
  TGI: > 100 µM
[38]
  GI50: 45.4 µM
  TGI: > 100 µM
[39]
  GI50: 22.1 µM
  TGI: 52.9 µM
